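Tested at 5 concentrations; 48 h exposure; 96-well plates; endpoints linearly interpolated, else capped at highest concentration. TGI marks complete inhibition of growth.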
Tests used:
Experiment in all cases: growth of human tumour cells (NCI), 48 h
[1] = system: EKVX NSCLC
[2] = system: MDA-MB-435
[3] = system: NCI-H23 lung
[4] = system: RPMI-8226 leukemia
[5] = system: SF-268 CNS
[6] = system: SF-539 CNS
[7] = system: SK-MEL-2 melanoma
[8] = system: SK-MEL-5 melanoma
[9] = system: SN12C renal
[10] = system: HOP-62 NSCLC

Compound	TGI [1]	TGI [2]	TGI [3]	TGI [4]	TGI [5]	TGI [6]	TGI [7]	TGI [8]	TGI [9]	TGI [10]
Cc1cn(S(=O)(=O)c2ccccc2)c2c(OCc3ccccc3)cc([N+](=O)[O-])cc12	> 100 µM	> 100 µM	> 100 µM	> 100 µM	> 100 µM	> 100 µM	> 100 µM	> 100 µM	> 100 µM	–
O=C(COc1cc(=O)oc2ccccc12)c1ccccc1	> 100 µM	–	65.2 µM	> 100 µM	> 100 µM	58.7 µM	> 100 µM	> 100 µM	> 100 µM	> 100 µM
O=C(Cn1c2ccc(Br)cc2c2nc3ccccc3nc21)NCc1ccccc1	–	> 100 µM	> 100 µM	> 100 µM	> 100 µM	–	95.1 µM	> 100 µM	> 100 µM	> 100 µM
O=C1OC(C(O)CO)C(C(O)CO)OC1=O (stereo unspecified)	> 10 µM	> 10 µM	> 10 µM	> 10 µM	> 10 µM	> 10 µM	–	> 10 µM	> 10 µM	> 10 µM
CN(C)CCNC(=O)c1cccc2c1C(=O)c1ccccc1C2=O	> 100 µM	–	50 µM	> 100 µM	> 100 µM	> 100 µM	> 90.5 µM	40.2 µM	> 100 µM	> 31.6 µM
COc1ccc2c(c1)/C(=C\c1c(Cl)nc3n1CCS3)C(=O)N2	77 µM	4.82 µM	72.2 µM	> 100 µM	> 100 µM	24.9 µM	–	17.2 µM	53.3 µM	> 100 µM
NCCCn1c(Cl)nc2ccccc21	> 100 µM	> 100 µM	> 100 µM	> 100 µM	> 100 µM	–	> 100 µM	> 100 µM	> 100 µM	> 100 µM
CCC1c2[nH]c3ccccc3c2C[C@H]2C(=O)NC(C)C(=O)N12 (stereo partly specified)	> 100 µM	> 100 µM	> 100 µM	> 100 µM	> 100 µM	–	> 100 µM	> 100 µM	> 100 µM	> 100 µM
Nc1nnc(N)n1N	> 100 µM	–	> 100 µM	> 100 µM	> 100 µM	> 100 µM	> 100 µM	> 100 µM	–	> 100 µM
COc1ccc(-c2cc(-c3ccc(C)cc3)n(C3OC(COC(C)=O)C(OC(C)=O)C(OC(C)=O)C3OC(C)=O)c(=S)c2C#N)cc1 (stereo unspecified)	> 100 µM	> 100 µM	> 100 µM	> 100 µM	> 100 µM	> 100 µM	–	> 100 µM	> 100 µM	> 100 µM
Cc1[nH]c(=O)nc(N/N=C/c2c3ccccc3c(Cl)c3ccccc23)c1C(=O)Nc1ccc(Cl)cc1	–	> 100 µM	> 100 µM	> 100 µM	> 100 µM	–	> 100 µM	> 100 µM	> 100 µM	> 100 µM
COc1ccc(C2=C(OC(C)=O)c3cccn3-c3ccc(Cl)cc3S2)cc1	> 10 µM	4.84 µM	> 10 µM	6.21 µM	> 10 µM	–	–	> 10 µM	> 10 µM	> 10 µM
COC(=O)c1ccc(OCCn2nnc(C(=O)NN)c2C(=O)NN)cc1	> 100 µM	> 100 µM	> 100 µM	> 100 µM	–	–	> 100 µM	> 100 µM	> 100 µM	> 100 µM
O=C(NC(=S)Nc1ccc(Br)cc1)c1ccc2c(c1)Sc1ccccc1O2	–	> 100 µM	> 100 µM	–	> 100 µM	> 100 µM	> 100 µM	> 100 µM	> 100 µM	> 100 µM
O=C1CCCC2=C1CC1=C(CCCC1=O)N2c1ccc(Cl)cc1	> 100 µM	> 100 µM	> 100 µM	> 100 µM	> 100 µM	> 100 µM	–	> 100 µM	> 100 µM	> 100 µM
COc1ccc(N2C(=O)C3ON(Cc4ccc(CC(N)=O)cc4)C(c4c5ccccc5c(C)c5ccccc45)C3C2=O)cc1 (stereo unspecified)	54.9 µM	> 100 µM	> 100 µM	–	> 100 µM	–	48.7 µM	–	> 100 µM	> 100 µM
CC1=C[P+](c2ccccc2)(c2ccccc2)c2ccccc2O1	> 100 µM	12 µM	24.1 µM	–	> 100 µM	31.3 µM	94.6 µM	13.5 µM	5.29 µM	59 µM
N=C1OC(CN2CCN(c3ccccc3)CC2)CN1C(=O)Nc1ccccc1 (stereo unspecified)	> 100 µM	> 100 µM	> 100 µM	> 100 µM	> 100 µM	–	> 100 µM	> 100 µM	> 100 µM	> 100 µM
O=c1cc(NNc2ccccc2)[nH]c(=O)[nH]1	> 100 µM	33.7 µM	> 100 µM	59.9 µM	99.6 µM	> 100 µM	–	> 100 µM	49.4 µM	> 100 µM
CCOP(=O)(OCC)C(c1ccc(F)cc1)N(C(=O)NC(F)(F)F)c1ccc(F)cc1 (stereo unspecified)	> 100 µM	> 100 µM	> 100 µM	> 100 µM	> 100 µM	> 100 µM	–	> 100 µM	> 100 µM	> 100 µM
CCCCn1c(=O)[nH]c2c(N)ncnc21	> 100 µM	> 100 µM	> 100 µM	–	> 100 µM	> 100 µM	> 100 µM	> 100 µM	> 100 µM	> 100 µM
COP(=O)(OC)C(N)Cc1c[nH]c2ccccc12 (stereo unspecified)	–	> 100 µM	> 100 µM	> 100 µM	–	–	> 100 µM	> 100 µM	> 100 µM	> 100 µM
Cc1cc(=O)[nH]c2cc(NC(=O)C(C)NC(=O)C(C)NC(=O)C(C)NC(=O)OC(C)(C)C)ccc12 (stereo unspecified)	> 15 µM	> 15 µM	> 15 µM	–	> 15 µM	> 15 µM	> 15 µM	> 15 µM	> 15 µM	> 15 µM
O=c1c(NCc2ccccc2)c(C2(c3ccccc3F)SCCCS2)c1=O	> 100 µM	> 100 µM	> 100 µM	–	> 100 µM	> 100 µM	> 100 µM	> 100 µM	> 100 µM	> 100 µM
